From patent US6461866B1, “In vitro photodynamic therapy using non laser light” (Photo Therapeutics Limited, priority 1992, dated 2002)

System: Chinese hamster ovary (CHO) cells
Experiment: In vitro PDT: survival of CHO cells incubated with HpD after irradiation
Assay type: cell-based
Procedure: In vitro work carried out using Chinese hamster ovary (CHO) cells incubated with […] HpD for 24 hours. Irradiation was centered on 630±12 nm for three light sources, namely a high intensity continuous wave (CW) lamp (non-laser light source in accordance with the present invention using 300 W Xenon lamp), secondly a continuous wave 20 W argon ion pumped dye laser and pulsed 10 W copper vapour pumped dye laser, all with fibre delivery. Light doses ranged from 0 to 2.5 J/cm^2 with light fluences ranging from 20 to 200 mW/cm^2. A light only control was taken at 275 mW/cm^2 for energy doses of 0 to 100 J/cm^2. Following irradiation, cells were plated out, stained and counted for survival.
FIGS. 2a, 2b, 2c show photosensitiser (HpD) absorption spectrum, cell kill efficacy spectrum and overlapping HpD/lamp spectra. PBS refers to phosphate buffered saline; S.F. means survival fraction.
FIGS. 3a, 3b show cell survival curves obtained at 20 & 50 mW/cm^2 respectively with highest kill efficiency achieved by the argon ion laser, followed by the copper vapour laser. The lamp kill efficiency of the light source in accordance with the present invention, though similar to the lasers (approx 70%) would be increased by reducing its emission bandwidth from 30 nm.

haematoporhyrin derivative [HpD]
lamp kill efficiency (cell survival curves) (CHO cells, 10 pg/ml HpD for 24 hours, 300 W Xenon lamp at 630±12 nm, 20 & 50 mW/cm^2, similar to the lasers): approx 70% | photo-inactivation of cancerous CHO cells in vitro (HpD with impinging visible light at 630±12 nm from the non-laser light source): proven photo-inactivation
